Assays:
[1] = system: oligoribonucleotide 3 (biotinylated truncated pre-miR-21) (RNA, miRNA) CCGACUGAUGUUGACUGUUGAAUCUCAUGGCAACACCAGUCGG; assay: SPR steady state; conditions: 80 mM NaCl, 100 mM total Na+; 20 mM sodium cacodylate, pH 7.2; equivalent affinity for all sites; per site
[2] = system: oligoribonucleotide 4 (biotinylated FRET-pair truncated pre-miR-21) (RNA, miRNA, tC^O (cytosine analogue, donor) at 15; tCnitro (cytosine analogue, acceptor) at 24) CCGACUGAUGUUGACUGUUGAAUCUCAUGGCAACACCAGUCGG; assay: SPR steady state; conditions: 80 mM NaCl, 100 mM total Na+; 20 mM sodium cacodylate, pH 7.2; equivalent affinity for all sites; per site
[3] = system: oligoribonucleotide 5 (hairpin loop FRET-labelled truncated pre-miR-21) (RNA, miRNA, tC^O (cytosine analogue, donor) at 24; tCnitro (cytosine analogue, acceptor) at 31) CCGACUGAUGUUGACUGUUGAAUCUCAUGGCAACACCAGUCGG; assay: interbase-FRET, change in FRET efficiency; conditions: 80 mM NaCl, 100 mM total Na+; 20 mM sodium cacodylate, pH 7.2; 1 µM RNA, 15 µM compound; single concentration, not a constant
[4] = system: oligoribonucleotide 7 (stem FRET-labelled truncated pre-miR-21) (RNA, miRNA, tC^O (cytosine analogue, donor) at 15; tCnitro (cytosine analogue, acceptor) at 37) CCGACUGAUGUUGACUGUUGAAUCUCAUGGCAACACCAGUCGG; assay: interbase-FRET, change in FRET efficiency; conditions: 80 mM NaCl, 100 mM total Na+; 20 mM sodium cacodylate, pH 7.2; 1 µM RNA, 15 µM compound; single concentration, not a constant
[5] = system: oligoribonucleotide 2 (truncated pre-miR-21, 43 nt) (RNA, miRNA) CCGACUGAUGUUGACUGUUGAAUCUCAUGGCAACACCAGUCGG; assay: ITC; conditions: 80 mM NaCl, 100 mM total Na+; 20 mM sodium cacodylate, pH 7.2, 25 °C; 10 µM RNA; 1:1 fit

Compound	Kd [1]	Kd [2]	ΔFRET15µM [3]	ΔFRET15µM [4]	Kd [5]
CCN[C@@H]1C[C@H](N)[C@@H](O[C@H]2OC(CN)=CC[C@H]2N)[C@H](O)[C@H]1O[C@H]1OC[C@](C)(O)[C@H](NC)[C@H]1O	28 ± 35 µM	27 ± 34 µM			
CN[C@@H]1[C@@H](O)[C@@H](O[C@@H]2[C@@H](O)[C@H](O[C@H]3OC(CN)=CC[C@H]3N)[C@@H](N)C[C@H]2N)OC[C@]1(C)O	4 ± 2 µM	4 ± 2 µM	0.023	0.041	
CN[C@@H]1[C@@H](O)[C@@H](O[C@@H]2[C@@H](O)[C@H](O[C@H]3O[C@H]([C@@H](C)O)[C@@H](O)[C@H](O)[C@H]3N)[C@@H](N)C[C@H]2N)OC[C@]1(C)O	101 ± 44 µM	94 ± 57 µM			
CN[C@@H]1[C@@H](O[C@H]2O[C@H](CO)[C@@H](N)[C@H](O)[C@H]2O)O[C@H]2C[C@@H](N)[C@@H](O[C@H]3[C@H](O)[C@@H](O)[C@H](N)C[C@@H]3N)O[C@@H]2[C@@H]1O	22 ± 12 µM	23 ± 12 µM			
CN[C@@H]1[C@H](O[C@H]2[C@H](O[C@H]3[C@H](O)[C@@H](O)[C@H](N=C(N)N)[C@@H](O)[C@@H]3N=C(N)N)O[C@@H](C)[C@]2(O)C=O)O[C@@H](CO)[C@H](O)[C@H]1O	134 ± 76 µM	115 ± 80 µM	0.004	0.008	
NCC[C@H](O)C(=O)N[C@@H]1C[C@H](N)[C@@H](O[C@H]2O[C@H](CN)[C@@H](O)[C@H](O)[C@H]2O)[C@H](O)[C@H]1O[C@H]1O[C@H](CO)[C@@H](O)[C@H](N)[C@H]1O	15 ± 4 µM	14 ± 3 µM			
NC[C@@H]1O[C@H](O[C@H]2[C@@H](O)[C@H](O[C@@H]3[C@@H](O)[C@H](N)C[C@H](N)[C@H]3O[C@H]3O[C@H](CN)[C@@H](O)[C@H](O)[C@H]3N)O[C@@H]2CO)[C@H](N)[C@@H](O)[C@@H]1O	3.9 ± 2.8 µM	2.7 ± 1.7 µM	0.042	0.045	5.2 ± 0.8 µM
NC[C@H]1O[C@H](O[C@H]2[C@H](O)[C@@H](O[C@H]3O[C@H](CO)[C@@H](O)[C@H](N)[C@H]3O)[C@H](N)C[C@@H]2N)[C@H](N)C[C@@H]1O	8 ± 4 µM	8 ± 5 µM	0.024	0.049	
NC[C@H]1O[C@H](O[C@H]2[C@H](O)[C@@H](O[C@H]3O[C@H](CO)[C@@H](O)[C@H](N)[C@H]3O)[C@H](N)C[C@@H]2N)[C@H](O)[C@@H](O)[C@@H]1O	44 ± 18 µM	45 ± 23 µM			
NC[C@H]1O[C@H](O[C@H]2[C@H](O[C@@H]3O[C@H](CO)[C@@H](O)[C@H]3O)[C@@H](O)[C@H](N)C[C@@H]2N)[C@H](N)[C@@H](O)[C@@H]1O	90 ± 73 µM	78 ± 67 µM			
